The values below come from publication PMC2778948, “A Novel Enediynyl Peptide Inhibitor of Furin That Blocks Processing of proPDGF-A, B and proVEGF-C” (PLoS ONE, 2009).

As a reminder, the IC50 is the concentration that inhibits the measured activity by half.

Assay [1] concerns furin-mediated processing of pro-PDGF-B in CHO cells. The assay is described as follows: Processing of proPDGF-B in CHO cells (western blot). The class given is cell-based. The conditions noted are these: for Block of processing of 31 kDa pro-PDGF-B to 17 kDa mature form: 0.5 to 15 µM. As for the experimental part: CHO-cells expressing endogenous proPDGF-B [58] were grown as described above in the absence and presence of various concentrations ranging from 0.5 to 15 µM of either furin-Eda peptide or α1-Pdx, a known furin inhibitor [50]. Western blots were performed for the presence of proPDGF-B and its processed form using PDGF-B specific antibody. In parallel samples were also analyzed for actin levels.
In general terms: In western blotting, separated proteins are transferred to a membrane and probed.

Assay [2] deals with T1, recombinant m (mouse) PC5 (Mus musculus, UniProt Q04592).
T1 construct: made in house
The assay is described as follows: In vitro PC5 assay with Boc-RVRR-MCA (50 µM), aromatic enediyne compounds. The class given is biochemical. The text has this: (§1) Most aromatic enediyne compounds are chemically highly reactive and can easily generate upon heating reactive bis-radical species via Bergman cyclo-aromatization reaction, [32]. It is a possibility that these reactive intermediates may then react with one or more of the catalytic amino acid residues His, Ser or Asp of PC-enzymes leading to chemical modifications of latter. This notion is supported by several studies involving interactions of amino acids either free or within protein sequences [41]–[46]. Based on this rationale we proposed that such types of molecules may therefore inhibit the protease activities of these enzymes. To test this hypothesis, we first synthesized several aromatic enediyne derivatives and examined in vitro their effects on proteolytic activities of three key members of PC-family enzymes namely furin, PC5 and PC7. In vitro enzyme assay of PCs against Boc-RVRR-MCA substrate (50 µM), in the absence and presence of various synthetic aromatic enediyne compounds (Fig. 1) indicated weak to modest inhibitory activities of these compounds. […] This is the first report of PC-inhibitory activity of an enediyne compound. […]
(§2) Figure 1 List of synthetic aromatic enediyne derivatives and their effects on protease activities of Proprotein Convertases Furin, PC5 and PC7. […] ND = not determined. […]

In the next assay the target is T2, soluble hPC7 (Homo sapiens, UniProt Q16549).
T2 construct: soluble hPC7 were obtained in partially purified form; made in house
T2 sequence (Q16549 142-667 limits assumed): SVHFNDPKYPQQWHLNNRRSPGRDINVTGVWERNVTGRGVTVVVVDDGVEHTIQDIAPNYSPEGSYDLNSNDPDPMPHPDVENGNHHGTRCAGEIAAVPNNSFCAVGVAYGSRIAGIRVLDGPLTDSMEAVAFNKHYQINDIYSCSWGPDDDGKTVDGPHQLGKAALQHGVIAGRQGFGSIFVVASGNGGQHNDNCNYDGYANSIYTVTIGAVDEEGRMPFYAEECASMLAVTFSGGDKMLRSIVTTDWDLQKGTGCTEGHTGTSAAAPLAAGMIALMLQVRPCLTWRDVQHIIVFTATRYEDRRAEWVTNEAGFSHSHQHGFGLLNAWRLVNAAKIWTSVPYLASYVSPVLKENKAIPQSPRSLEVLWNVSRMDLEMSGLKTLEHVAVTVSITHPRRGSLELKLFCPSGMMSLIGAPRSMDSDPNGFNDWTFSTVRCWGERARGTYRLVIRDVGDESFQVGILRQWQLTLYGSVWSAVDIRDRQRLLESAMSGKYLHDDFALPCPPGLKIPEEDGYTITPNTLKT
The assay is described as follows: In vitro PC7 assay with Boc-RVRR-MCA (50 µM), aromatic enediyne compounds. The class given is biochemical.
Source text: as §1, §2

In assay [3] the target is T3, recombinant h (human) furin (Homo sapiens, UniProt P09958).
T3 construct: pure soluble recombinant h (human) furin; purchased New England Biolabs
The experiment in a line: In vitro furin assay with Boc-RVRR-MCA (50 µM), aromatic enediyne compounds. The assay is classed as biochemical. The settings on record: for inhibition at 100 µM: read-out: Furin inhibition at a single concentration. The source says: Most aromatic enediyne compounds are chemically highly reactive and can easily generate upon heating reactive bis-radical species via Bergman cyclo-aromatization reaction, [32]. It is a possibility that these reactive intermediates may then react with one or more of the catalytic amino acid residues His, Ser or Asp of PC-enzymes leading to chemical modifications of latter. This notion is supported by several studies involving interactions of amino acids either free or within protein sequences [41]–[46]. Based on this rationale we proposed that such types of molecules may therefore inhibit the protease activities of these enzymes. To test this hypothesis, we first synthesized several aromatic enediyne derivatives and examined in vitro their effects on proteolytic activities of three key members of PC-family enzymes namely furin, PC5 and PC7. In vitro enzyme assay of PCs against Boc-RVRR-MCA substrate (50 µM), in the absence and presence of various synthetic aromatic enediyne compounds (Fig. 1) indicated weak to modest inhibitory activities of these compounds. […] This is the first report of PC-inhibitory activity of an enediyne compound. This finding prompted us to the idea of incorporating an enediyne function within a peptide sequence which may enhance the potency and selectivity of furin inhibition. To accomplish this, we designed and synthesized an enediynyl amino acid (Eda) derivative with its amino terminal protected by Fmoc (9H-fluoren-9-ylmethoxy carbonyl) group so that it can be directly used in solid phase peptide synthesis.
Figure 1 List of synthetic aromatic enediyne derivatives and their effects on protease activities of Proprotein Convertases Furin, PC5 and PC7. […] The enzyme assay was carried out by using the fluorogenic peptide substrate Boc-RVRR-MCA (50 µM final concentration) as described in [27]. ND = not determined. TEXT PRINTED IN THE PICTURE: AB-1: MW 438; Furin: 29.9 ± 1.5; PC5: 33% (57 mM); PC7: 30.4 ± 3.5 | AB-2: MW 390; Furin: 10.5 ± 1.8; PC5: 34.5 ± 5.8; PC7: 8.5 ± 1.8 | AB-3: MW 506; Furin: 14.2 ± 1.8; PC5: 17.2± 3.4 | AB-4: MW 258; Furin: 10% at 100 μM | AB-5: MW 259; Furin: 12% at 100 μM | AB-6: MW 780; Furin: 192 ± 6.7 | AB-6-Ni: MW 838; Furin: 160 ± 2.5
While pure soluble recombinant h (human) furin was obtained commercially from New England Biolabs (Boston, Ma, USA), recombinant m (mouse) PC5 and soluble hPC7 were obtained in partially purified form as described earlier.

For assay [4], the system named is furin-mediated processing of proVEGF-C in CHO cells. The assay is described as follows: Processing of proVEGF-C in CHO cells (western blot). The conditions noted are these: 50 µM. The assay is classed as cell-based. The text has this: (§3) The result was compared in parallel with the commercial furin inhibitor Dec (decanoyl)-RVRR-cmk (chloromethyl ketone) and the 83-mer synthetic full length prodomain protein of hfurin [49]. […] This was reflected by the strong appearance of 22 kDa proPDGF-A band which was completely absent in the control experiment done in parallel without the presence of any inhibitor. […] The effect was compared in parallel with that done with the known furin inhibitor dec-RVRR-cmk.
CHO-cells expressing FLAG-labeled proVEGF-C [57] were grown in DMEM medium as described above in the absence and presence of furin-Eda peptide and the furin inhibitor Dec-RVRR-cmk (each 50 µM concentration). The presence of VEGF-C precursor and its C-terminal processed form generated by furin cleavage were assessed by western blot analysis using FLAG antibody while the level of actin (control house keeping protein) was analyzed by immunoblot for quantitation purpose.

Assay [5] concerns furin processing of proPDGF-A in CHO cells. The assay is described as follows: Processing of FLAG-tagged proPDGF-A in CHO cells (western blot). The assay is classed as cell-based. The conditions noted are these: 24 h, FLAG antibody western blot.
Source text: as §3
CHO-cells expressing FLAG-tagged PDGF-A were grown in DMEM medium as described (43) until the cells achieved ∼80% confluency (24 h), At this stage the medium was removed, cells were washed and grown in fresh buffer supplemented with furin-Eda peptide (50 µM final concentration). The media and cells were harvested after another 24 h cell growth. The collected media were concentrated ∼20-fold using centricon filtration system (Amersham Biosciences Inc, cut off MW = 3 kDa) and subjected to western blot analysis using FLAG antibody for the presence of full length proPDGF-A and its C-terminal mature form obtained following cleavage by endogenous furin present in CHO cells. […] For quantitative purpose, each sample was also analyzed for the presence of actin by immunoblot using a specific antibody.

Values joined by “and” are separate entries in the source; they are usually repeats but may differ in a detail not shown here. Equal values may be shown once. Read-outs that look alike come from different tables or passages of the source.

T3 sequence (P09958 108-715 limits assumed): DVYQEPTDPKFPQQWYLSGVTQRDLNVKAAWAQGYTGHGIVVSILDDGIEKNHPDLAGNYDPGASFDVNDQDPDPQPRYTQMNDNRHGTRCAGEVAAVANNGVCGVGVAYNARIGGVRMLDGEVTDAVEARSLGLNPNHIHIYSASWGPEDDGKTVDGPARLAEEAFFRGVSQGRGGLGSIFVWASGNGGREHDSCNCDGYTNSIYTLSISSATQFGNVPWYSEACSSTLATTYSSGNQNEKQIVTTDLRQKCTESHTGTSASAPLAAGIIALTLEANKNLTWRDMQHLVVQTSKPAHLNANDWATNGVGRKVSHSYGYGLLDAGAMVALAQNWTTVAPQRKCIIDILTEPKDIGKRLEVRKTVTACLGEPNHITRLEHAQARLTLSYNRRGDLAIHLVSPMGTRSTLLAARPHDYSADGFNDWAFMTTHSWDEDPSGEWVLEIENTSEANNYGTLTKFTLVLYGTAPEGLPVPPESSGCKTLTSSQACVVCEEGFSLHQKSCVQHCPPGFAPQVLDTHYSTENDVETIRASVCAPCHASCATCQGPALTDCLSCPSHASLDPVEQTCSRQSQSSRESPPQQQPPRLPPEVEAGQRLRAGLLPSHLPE
T1 sequence (Q04592 117-1877): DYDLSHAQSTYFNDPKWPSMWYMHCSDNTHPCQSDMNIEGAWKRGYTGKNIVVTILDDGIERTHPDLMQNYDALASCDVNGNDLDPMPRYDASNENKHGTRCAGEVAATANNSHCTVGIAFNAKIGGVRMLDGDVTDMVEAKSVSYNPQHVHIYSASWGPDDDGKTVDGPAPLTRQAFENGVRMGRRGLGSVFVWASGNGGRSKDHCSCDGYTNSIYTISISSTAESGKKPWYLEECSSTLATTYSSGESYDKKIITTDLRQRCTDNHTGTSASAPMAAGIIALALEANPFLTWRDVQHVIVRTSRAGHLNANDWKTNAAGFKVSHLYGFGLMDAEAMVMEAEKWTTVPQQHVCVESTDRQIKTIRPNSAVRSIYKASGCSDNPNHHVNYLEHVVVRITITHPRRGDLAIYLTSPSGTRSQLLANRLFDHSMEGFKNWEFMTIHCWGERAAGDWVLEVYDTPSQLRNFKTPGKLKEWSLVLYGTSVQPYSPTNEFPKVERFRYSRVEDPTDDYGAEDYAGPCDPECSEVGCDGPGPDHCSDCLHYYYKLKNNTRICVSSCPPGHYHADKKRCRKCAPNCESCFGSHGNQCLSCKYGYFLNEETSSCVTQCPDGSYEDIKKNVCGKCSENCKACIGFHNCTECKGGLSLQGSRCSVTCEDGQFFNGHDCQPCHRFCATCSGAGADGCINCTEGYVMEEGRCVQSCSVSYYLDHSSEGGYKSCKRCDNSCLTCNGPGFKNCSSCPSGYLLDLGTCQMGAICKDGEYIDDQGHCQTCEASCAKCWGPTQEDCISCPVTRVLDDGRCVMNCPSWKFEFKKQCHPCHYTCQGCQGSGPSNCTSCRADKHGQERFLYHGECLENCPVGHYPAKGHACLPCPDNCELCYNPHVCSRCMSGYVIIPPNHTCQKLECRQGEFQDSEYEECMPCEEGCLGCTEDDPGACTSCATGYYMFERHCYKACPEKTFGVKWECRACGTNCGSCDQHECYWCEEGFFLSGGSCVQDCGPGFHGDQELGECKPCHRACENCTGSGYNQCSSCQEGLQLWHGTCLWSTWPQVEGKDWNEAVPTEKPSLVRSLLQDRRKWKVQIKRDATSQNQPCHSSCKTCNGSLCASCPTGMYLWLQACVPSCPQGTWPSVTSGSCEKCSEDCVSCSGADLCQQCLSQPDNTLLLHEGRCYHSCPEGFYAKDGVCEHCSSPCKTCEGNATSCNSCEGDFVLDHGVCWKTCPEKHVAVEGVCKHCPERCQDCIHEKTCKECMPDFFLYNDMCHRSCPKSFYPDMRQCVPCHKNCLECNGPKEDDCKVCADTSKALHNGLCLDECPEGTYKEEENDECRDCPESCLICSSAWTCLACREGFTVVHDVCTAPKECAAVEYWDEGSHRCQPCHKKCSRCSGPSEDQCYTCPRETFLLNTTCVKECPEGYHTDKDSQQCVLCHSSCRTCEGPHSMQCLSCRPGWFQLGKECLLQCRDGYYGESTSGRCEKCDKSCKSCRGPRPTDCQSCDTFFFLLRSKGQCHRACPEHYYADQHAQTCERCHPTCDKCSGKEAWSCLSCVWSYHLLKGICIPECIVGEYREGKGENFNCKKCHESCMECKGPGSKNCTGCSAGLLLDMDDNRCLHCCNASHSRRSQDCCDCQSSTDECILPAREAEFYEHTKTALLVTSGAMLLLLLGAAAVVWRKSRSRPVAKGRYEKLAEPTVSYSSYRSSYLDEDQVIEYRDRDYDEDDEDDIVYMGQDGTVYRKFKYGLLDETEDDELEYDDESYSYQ

“α1-Pdx: bioengineered protein, known potent inhibitor of furin”: in assay [1], the “Effect on formation of 22 kDa intermediate form of PDGF-B” value is given as “neither inhibitors displayed any effect” and the “Block of processing of 31 kDa pro-PDGF-B to 17 kDa mature form” value is recorded as “highly comparable”.

`C1#Cc2ccccc2C#CCN(Cc2ccccc2)CCN(Cc2ccccc2)C1` [AB-2]: the IC50 in assay [2] (IC50 for inhibition of PC5, Boc-RVRR-MCA 50 µM final concentration) is 34 µM and 34.5 µM; on soluble hPC7 it was 8.5 µM; in assay [3], 10.5 µM.

In the case of `C1#Cc2ccccc2C#CCNc2cccc(c2)NC1` [AB-4], the inhibition at 100 µM in assay [3] turned out to be 10%.

`Cc1ccc(S(=O)(=O)N2CC#Cc3ccccc3C#CCN(S(=O)(=O)c3ccc(C)cc3)c3cccc2c3)cc1` [AB-3]: the IC50 came to 17.2 ± 3.4 µM in assay [2] (read-out: IC50 for inhibition of PC5, Boc-RVRR-MCA 50 µM final concentration) and 14.2 ± 1.8 µM in assay [3] (read-out: IC50 for inhibition of furin, Boc-RVRR-MCA 50 µM final concentration). Besides, the “Effect on PC7 protease activity” value on soluble hPC7 (Boc-RVRR-MCA 50 µM) was “minor protease activating effect”.

Regarding `C1#Cc2ccccc2C#CCN(Cc2ccccc2)CCN(Cc2ccccc2)CC#Cc2ccccc2C#CCN(Cc2ccccc2)CCN(Cc2ccccc2)C1` [AB-6], the IC50 in assay [3] was 192 ± 6.7 µM.

Regarding `C1#Cc2ccccc2C#CCNc2cccc(n2)NC1` [AB-5], in assay [3], the inhibition at 100 µM was found to be 12%.

Turning to `CC(C)[C@H](NC(=O)[C@H](CCC(N)=O)NC(=O)[C@@H](N)CCC(N)=O)C(=O)N[C@@H](C)C(=O)N[C@@H](CCCCN)C(=O)N[C@@H](CCCNC(=N)N)C(=O)N[C@@H](CCCNC(=N)N)C(=O)N[C@H](C(=O)N[C@@H](CCCCN)C(=O)N[C@@H](CCCNC(=N)N)C(=O)NCCC#Cc1ccccc1C#CCCC(=O)N[C@@H](CC(=O)O)C(=O)N[C@H](C(=O)N[C@@H](Cc1ccc(O)cc1)C(=O)N[C@@H](CCC(N)=O)C(=O)N[C@@H](CCC(=O)O)C(N)=O)C(C)C)[C@@H](C)O` [furin-Eda-peptide (II)], in assay [1], the “Effect on formation of 22 kDa intermediate form of PDGF-B” value is listed as “neither inhibitors displayed any effect” and the “Block of processing of 31 kDa pro-PDGF-B to 17 kDa mature form” value was “block furin-mediated processing”. Besides, the “Block of cleavage of 50 kDa proVEGF-C to 28 kDa mature VEGF-C” value in assay [4] is on record as “block significantly”. Moreover, the “Block of cleavage of 22 kDa pro-PDGF-A to 14 kDa mature PDGF-A” value in assay [5] (50 µM) is given as “block efficiently”.

On to “Dec (decanoyl)-RVRR-cmk (chloromethyl ketone) [Dec-RVRR-cmk, reference compound]”, for which the “Block of cleavage of 50 kDa proVEGF-C to 28 kDa mature VEGF-C” value in assay [4] was “block significantly”. Besides, in assay [5] (10 and 50 µM), the “Block of cleavage of 22 kDa pro-PDGF-A to 14 kDa mature PDGF-A” value was “block efficiently”.
